Source: patent US4288449A, “N-Arylsulfonylpyrroles, their preparation, and therapeutic agents containing these compounds” (BASF Aktiengesellschaft, priority 1978, dated 1981)

Assays:
[1] = Diuretic action after oral administration (excretion of electrolyte and of water); format: in vivo, dog (male beagles); details: for Excretion of electrolyte: Na^+ / Na^+/K^+ quotient / Excretion of water: H2 O / Excretion of electrolyte: K^+ / Excretion of electrolyte: Cl^- / Na^+ excretion between the 2nd and 6th hours after administration / times more active than Furosemid: dog, oral; for Excretion of electrolyte: Na^+: dose mg/kg: 9 0.464, 15 0.215, 114 0.1, 116 0.1, 120 0.215, Furosemid 1.0; for Na^+/K^+ quotient: control 1.0; for Na^+ excretion between the 2nd and 6th hours after administration / diuretic action: in words; for times more active than Furosemid: by doses giving Na^+ and H2 O excretion similar to Furosemid
Experimental: The diuretic action was determined on male beagles weighing from 10 to 15 kg.
The animals are kept without food for 18 hours before starting the experiment. 2 hours before administration of the test substance, they are given 20 ml/kg of water orally. The test substances are administered orally as a tragacanth suspension. Thereafter, 4 ml/kg of water are administered 6 times at intervals of 1 hour.
Urine samples are taken by catheterization at intervals of 2 hours, over a period of 6 hours. […]

in vivo = details: mouse, po
Experimental: To determine the acute toxicity, the substances are administered orally to groups of 10 female mice of the NMRI strain, weighing from 20 to 23 g. The mean lethal dose (LD 50) is determined after a period of observation of 72 hours.

[2] = 2 hours, doses as E1, control 9,3
[3] = 2 hours, doses as E1, control 67
[4] = 2 hours, doses as E1, control 81
[5] = 6 hours, doses as E6, control 27
[6] = 6 hours, doses as E6, control 184
[7] = 6 hours, doses as E6, control 238

Structure (SMILES) | Excretion of electrolyte: Na^+ ([1]; 2 hours, control 66) | Na^+/K^+ quotient ([1]; 2 hours, doses as E1) | Excretion of water: H2 O [1, 2] [mL/kg] | Excretion of electrolyte: K^+ [1, 3] [μval/kg] | Excretion of electrolyte: Cl^- [1, 4] | Excretion of electrolyte: Na^+ ([1]; 6 hours, control 212) | Excretion of water: H2 O [1, 5] [mL/kg] | Excretion of electrolyte: K^+ [1, 6] [μval/kg] | Excretion of electrolyte: Cl^- [1, 7] | Na^+ excretion between the 2nd and 6th hours after administration [1] | diuretic action [1] | LD50 at 72 h (in vivo) [mg/kg] | selectivity ratio (in vivo) | times more active than Furosemid [1] [times]
O=C(O)c1cc(NCc2ccsc2)c(Oc2ccccc2)c(S(=O)(=O)n2cccc2)c1 [Example 15] | 1,240 μval/kg | 3.7 | 23 | 333 | 1,520 μval/kg | 1,940 μval/kg | 45 | 642 | 2,440 μval/kg | a distinct further increase in excretion | not only better action, but also longer-lasting action, than Furosemid | 1470 | 6840 | –
Cc1ccc(C)n1S(=O)(=O)c1cc(C(=O)O)cc(NCc2ccsc2)c1Nc1ccccc1 [Example 120] | 1260 µval/kg | 5.6 | 19 | 227 | 1,600 μval/kg | 2,050 μval/kg | 41 | 527 | 2,760 μval/kg | – | – | > 2150 | > 10000 | –
NS(=O)(=O)c1cc(C(=O)O)c(NCc2ccco2)cc1Cl [Furosemid, 4-chloro-N-(2-furylmethyl)-5-sulfamylanthranilic acid, reference compound] | – | 3.1 | – | – | – | – | – | – | – | – | – | – | – | –
CCc1ccc(CC)n1S(=O)(=O)c1cc(C(=O)O)cc(NCc2ccsc2)c1Oc1ccccc1 [Example 114] | 1410 µval/kg | 4.8 | 26 | 295 | 1,780 μval/kg | 1,640 μval/kg | 42 | 442 | 2,080 μval/kg | – | – | > 2150 | > 21500 | 10
O=C(O)c1cc(NCc2ccccc2)c(Oc2ccccc2)c(S(=O)(=O)n2cccc2)c1 [Example 9] | 1,520 μval/kg | 5.1 | 27 | 298 | 1,940 μval/kg | 2930 µval/kg | 56 | 810 | 4,200 μval/kg | a distinct further increase in excretion | not only better action, but also longer-lasting action, than Furosemid | 957 | 2060 | 2.2
CCc1ccc(C)n1S(=O)(=O)c1cc(C(=O)O)cc(NCc2ccsc2)c1Oc1ccccc1 [Example 116] | 1,150 μval/kg | 4.2 | 22 | 271 | 1,510 μval/kg | 1,560 μval/kg | 40 | 473 | 2,100 μval/kg | – | – | > 2150 | > 21500 | 10
